Test results as given in US11192949B2, “HIV-1 vaccine” (CASE WESTERN RESERVE UNIVERSITY, priority 2013, dated 2021).
Read-outs that look alike come from different tables or passages of the source.

Assays:
[1] = system: A74 MVC treated week 21 virus (MVC.21); assay: Drug susceptibility assay (reverse transcriptase activity) in U87.CD4.CCR5 cells, MVC selected virus MVC.21; type: cell-based, HIV-1
Method: (§1) (A) Virus A74 derived from passage control week 21 (PC.21) and MVC treated week 21 (MVC.21) cultures were used to infect U87.CD4.CCR5 cells in the presence of increasing concentrations of MVC. (B) These viruses were also used to infect U87.CD4.CCR5 cells in the presence of maximal inhibitory concentrations (10 μM) of CCR5 antagonists MVC and TAK-779 and fusion inhibitor enfuvirtide (T20). Reverse transcriptase activity was measured 7 days post infection. Percent infection was calculated relative to the no drug control for each virus. Data shown are means of triplicates with error bars representing standard deviations.
(§2) FIG. 15 illustrates a plot showing sensitivity to attachment inhibitor BMS-806. […] Reverse transcriptase activity was measured five days post infection and percent inhibition calculated based on the no drug condition. Data represents means of triplicates with standard deviations.
(§3) U87.CD4.CCR5 cells were plated in 96-well format (1×10^4 cells/well) for 24 hr. Cells were then treated for 2 hr with 5-fold dilutions of MVC (100 μM to 2×10^−6 μM) and then infected at a multiplicity of infection (MOI) of 0.001 infectious units (IU)/cell. All assays were performed in triplicate. After 24 hr, cells were washed in 1×PBS to remove free virus and media containing the appropriate MVC drug dilutions was added. Viral replication was measured daily by radio-labeled reverse transcriptase assay using a Packard beta counter to quantify counts per minute (cpm). Drug sensitivity curves were generated using non-linear regression curve fitting features of GraphPad Prism 5 software.

[2] = system: A74 passage control week 21 virus (PC.21); assay: Drug susceptibility assay (reverse transcriptase activity) in U87.CD4.CCR5 cells, passage control virus PC.21; type: cell-based, HIV-1
Method: as §1, §2, §3

[3] = system: gp120 chimeric virus clone MVC.21.119
Method: as §3
(§4) Gp120 chimeric viruses were cloned into an NL4-3 backbone from passage control and virus passaged in the presence of MVC escalations using the yeast homologous recombination-gap repair technique. From this point forward, the viruses and clones are referred to as […] (passage control) or MVC (maraviroc selected). 21 (number of passages). 1 (clone number) or PC.21.1 or MVC.21.1. The gp120 regions of the PC.1 (starting virus), PC.21 and MVC.21 viruses were PCR amplified using primers F_gp120 5′-[…]-3′ (SEQ ID NO: 1) and B_gp120 5′-[…]-3′ (SEQ ID NO: 2). Briefly, these gp120 PCR products were then co-transformed with a SacI-linearized pREC_NFL_Δgp120/URA3 into Saccharomyces cerevisiae MYA-906 cells (ATCC). Following homologous recombination, plasmids were extracted from the yeast cells and transformed into electrocompetent Escherichia coli Stbl4 cells (Invitrogen). Individual bacterial colonies were grown and plasmids were extracted using Qiagen miniprep kits. Chimeric pREC_NFL_gp120 plasmids were co-transfected into 293T cells (3×10^4 cells/well) along with the complementing plasmid pCMV_cplt using Fugene 6 reagent (Promega, Madison, Wis.) as described. Heterodiploid virus particles containing one copy of the NFL and cplt HIV-1 RNAs represent approximately half of the virus derived from 293T cell transfections and can be propagated on U87.CD4.CCR5 cells to produce replication competent virus with a complete virus genome. Virus stocks of each clone were titered as described above. The DNA sequences obtained in the course of this work were deposited in the GenBank/EMBL/DDBJ databases under the following accession numbers: env(gp120) (JX993942-JX993981).

[4] = system: gp120 chimeric virus clone PC.21.109
Method: as §3, §4

[5] = system: gp120 chimeric virus clone PC.21.111
Method: as §3, §4

[6] = system: gp120 chimeric virus clone MVC.21.122; conditions: U87.CD4.CCR5
Method: as §3, §4

[7] = system: gp120 chimeric virus clone MVC.21.123
Method: as §3, §4

[8] = system: gp120 chimeric virus clone MVC.21.128
Method: as §3, §4

[9] = system: gp120 chimeric virus clone PC.1.1
Method: as §3, §4

[10] = system: gp120 chimeric virus clone MVC.21.122.425K
Method: as §3

[11] = system: subtype B patient-derived MVC resistant virus R3; conditions: clone R3; multiple cycle conditions
Method: (§5) For multiple replication cycle drug susceptibility assays, U87.CD4.CCR5 cells were plated as above and pretreated with 5-fold dilutions of MVC (100 μM to 2×10^−6 μM). Cells were infected at an MOI of 0.001 IU/cell with NL4-3/gp120 chimeric virus in quadruplicate. After 24 hours, viral inoculums were removed and replaced with media containing the appropriate MVC dilutions. Reverse transcriptase activity in supernatant was monitored as previously described on days 4 through 7 post infection.

[12] = system: HIV-1 subtype B primary isolate B6; conditions: read-out: mean IC50; U87.CD4.CCR5; virus B6
Method: as §3
(§6) We assessed “intrinsic” susceptibilities of HIV-1 subtype A, B, and C primary isolates to maraviroc. Multiple cycle drug susceptibility assays were performed in U87.CD4.CCR5 cells in the presence of 5-fold decreasing concentrations of MVC starting at 100 μM.

[13] = system: HIV-1 subtype C primary isolate C8; conditions: read-out: mean IC50; U87.CD4.CCR5; virus C8
Method: as §3, §6

[14] = system: A74 passage control week 21 virus (PC.21); assay: Multiple cycle drug sensitivity assay in PBMC, virus PC.21; type: cell-based, HIV-1
Method: (§7) U87.CD4.CCR5 cells were obtained through the AIDS Research and Reference Reagent Program, Division of AIDS, NIAID, NIH. U87.CD4.CCR5 cells were maintained in DMEM supplemented with 10% FBS, 100 μg/mL penicillin/streptomycin, 300 μg/mL G418, and 1 μg/mL puromycin (Invitrogen, Carlsbad, Calif.). 293T cells were cultured in DMEM supplemented with 10% FBS and 100 μg/mL penicillin/streptomycin. Peripheral blood mononuclear cells (PBMCs) were obtained from whole blood extracted from a HIV negative donor by Ficoll-Paque centrifugation. PBMC cultures were stimulated with 1 μg/mL phytohemagglutinin (PHA; Gibco, Carlsbad, Calif.) for 48 hrs in RPMI 1640 medium (Gibco) containing 10% FBS and 100 μg/mL penicillin/streptomycin. Cells were maintained thereafter in RPMI 1640 medium with 10% FBS, 100 μg/mL penicillin/streptomycin, and […] interleukin-2 (IL-2; Gibco).
(§8) All assays were performed in triplicate.
(§9) Therefore, multiple cycle drug sensitivity assays were performed in peripheral blood mononuclear cells (PBMC) isolated from an HIV negative donor with PC.21 and MVC.21.

[15] = system: HIV-1 subtype A primary isolate A74; assay: Multiple cycle drug sensitivity assay in PBMC, virus A74; type: cell-based
[16] = system: CC1/85 MVC-resistant virus containing the T316 and V323 V3 loop mutations; conditions: 1 μM MVC; cited from earlier work
[17] = system: HIV-1 subtype A primary isolate A74; conditions: U87.CD4.CCR5; virus A74
[18] = system: B6.PC.21 virus; conditions: U87.CD4.CCR5
Method: as §3
(§10) Reverse transcriptase (RT) activity was monitored in the cell-free supernatant for each weekly passage and inhibitor concentration increased when RT activity reached 2-fold over background.

[19] = system: B6.MVC.21 virus; conditions: U87.CD4.CCR5
Method: as §3, §10

[20] = system: gp120 chimeric virus clone MVC.21.132 (A74.MVC.21.132)
Method: as §3, §4
as §5, with “After 24 hours, viral inoculums were removed and replaced with media containing the appropriate MVC dilutions.” left out

[21] = system: subtype B patient-derived MVC resistant virus R3; conditions: clone R3; single cycle conditions
Method: (§11) For single replication cycle drug susceptibility assays, U87.CD4.CCR5 cells in 96-well format (1×10^4 cells/well) were pretreated for 2 hours with 10-fold dilutions of MVC (1 μM to 1×10^−7 μM) then infected in triplicate with luciferase encoding psuedovirus. After 48 hours, supernatant was removed and cells were lysed using 50 μL Glo lysis buffer (Promega, Madison, Wis.). Cells were lysed for 20 minutes at room temperature, transferred to white polystyrene 96 well plates, and read with a PerkinElmer VICTOR plate reader using injectors to introduce 50 μL Bright Glo reagent per well (Promega, Madison, Wis.). Luciferase activity was measured as relative light units (RLU).

[22] = system: A74.MVC.21.132 psuedovirus
Method: as §11

[23] = system: A74 MVC treated week 21 virus (MVC.21); assay: Multiple cycle drug sensitivity assay in PBMC, virus MVC.21; type: cell-based, HIV-1
Method: as §7, §8, §9

[24] = highest MVC concentrations (4, 20, 100 μM)

Cc1ccc(-c2ccc3c(c2)C=C(C(=O)Nc2ccc(C[N+](C)(C)C4CCOCC4)cc2)CCC3)cc1.[Cl-] [TAK-779]
inhibition of virus replication ([1]; 10 μM (IC99 inhibitory concentration), MVC.21): cross resistance | inhibition of virus replication ([2]; 10 μM (IC99 inhibitory concentration), PC.21): completely blocked

COc1ccnc2[nH]cc(C(=O)C(=O)N3CCN(C(=O)c4ccccc4)C[C@H]3C)c12 [BMS-806]
inhibition ([1]; highest concentrations tested (50 and 5 μM), MVC.21): 98% | inhibition ([2]; highest concentrations tested (50 and 5 μM), PC.21): 46%

Maraviroc [MVC]
IC50 fold change relative to input gp120 clone PC.1.1 [3]: 40 fold | MPI [3]: > 95% | IC50 ([3]; U87.CD4.CCR5): 34 nM | inhibition (RT activity) [3, 24]: 97% | sensitivity to MVC inhibition [4]: sensitive | inhibition (RT activity) [4, 24]: 99.9% | sensitivity to MVC inhibition [5]: sensitive | IC50 [6]: 0.9 nM | IC50 fold change relative to input gp120 clone PC.1.1 [7]: 11 fold | MPI [7]: > 95% | IC50 fold change relative to input gp120 clone PC.1.1 [8]: 40 fold | MPI [8]: > 95% | IC50 ([8]; U87.CD4.CCR5): 37 nM | sensitivity to MVC inhibition [9]: sensitive | IC50 ([1]; virus MVC.21): 216 nM | MPI (maximal percent inhibition) ([1]; virus MVC.21, highest drug concentration tested 100 μM): 81% | shift in IC50 relative to MVC.21.122 [10]: 36 fold | IC50 ([10]; U87.CD4.CCR5): 33 nM | maximal percent inhibition (MPI) [11]: 61% | IC50 [12]: 2 nM | IC50 [13]: 2 nM | IC50 ([2]; virus PC.21): 1 nM | MPI (maximal percent inhibition) ([2]; virus PC.21): 100% | IC50 [14]: 5 nM | MPI [14]: 98% | IC50 ([14]; read-out: IC50): 6 nM | IC50 [15]: 5 nM | MPI [15]: 100% | level of replication in the presence of drug as compared to the absence of drug [16]: 25% | IC50 [17]: 10 nM | MPI (maximal percent inhibition) [17]: 99% | IC50 ([18]; B6 week 21 control culture): 8 nM | MPI (maximal percent inhibition) ([18]; virus B6.PC.21): 100% | IC50 ([19]; B6 week 21 inhibitor treated culture): 14 nM | MPI (maximal percent inhibition) ([19]; virus B6.MVC.21): 99% | rightward shift in IC50 compared with MVC sensitive clone A74.PC.21.109 ([20]; A74.MVC.21.132, multiple replication cycle conditions): 17 fold | IC50 fold change relative to input gp120 clone PC.1.1 ([20]; clone MVC.21.132): 10 fold | MPI ([20]; clone MVC.21.132): > 95% | IC50 ([20]; clone MVC.21.132, U87.CD4.CCR5): 8.8 nM | maximal percent inhibition (MPI) [21]: 56% | resistance in single cycle assay [22]: resistance could not be detected | IC50 [23]: 300 nM | MPI [23]: 73%
